The source of these data is publication PMC7018972, “Novel and selective inactivators of Triosephosphate isomerase with anti-trematode activity” (Scientific Reports, 2020).

Like-named read-outs stand apart in the source and are kept apart here.

For orientation: IC50 means the concentration needed to halve the response being measured.

Series [1] addresses Fasciola hepatica TIM (FhTIM) (Fasciola hepatica, UniProt S4UI50). Description: Inhibition of recombinant FhTIM, coupled enzyme assay. It is filed as biochemical. The note with it: read-out: IC50. Summed up: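 E. coli-expressed FhTIM preincubated with compound 1 h at 37 °C in 100 mM triethanolamine, 10 mM EDTA, pH 7.4, 10% DMSO. Aliquot diluted into coupled assay (1 mM glyceraldehyde-3-phosphate, 0.2 mM NADH, α-glycerol phosphate dehydrogenase, pH 7.4) with NADH decrease at 340 nm, 38 °C. Triplicate, two independent experiments.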

The subject of series [2] is newly excysted juvenile (NEJ) F. hepatica. Description: In vitro NEJ treatment. The class given is cell-based, Fasciola hepatica. The note with it: NEJ, incubation time 72 h. Here is the method:
F. hepatica metacercariae were acquired from DILAVE, MGAP, Uruguay. NEJ were obtained by in vitro excystement as previously described with minor modifications. Briefly, metacercariae were incubated with 1% sodium hypochlorite for 5 min at room temperature to remove the outer cyst wall and then washed exhaustively with PBS 200 U/mL Penicillin G sulfate, […] streptomycin sulfate, 500 ng/mL amphotericin B, 10 mM HEPES, counted and divided into groups of around 20 parasites that were transferred to 12 wells tissue culture plates. Parasites were maintained at 37 °C, 5% CO2 in modified Basch’s medium. At day 1, compounds were added at the indicated concentrations and 0.5% DMSO was added to control groups; each condition was tested in duplicate. NEJ behavior was monitored under a light microscope (Olympus BX41), every day each well was recorded for a minute in order to assess parasite motility and registered using the following score: 3- normally active; 2- reduced activity (sporadic movement); 1- immotile (dead)[48].

The subject of another series is S. mansoni somules. The experiment in a line: S. mansoni somules phenotypic screen in vitro. The class given is cell-based, Schistosoma mansoni. The note with it: for SOMULES SEVERITY SCORE: Table 2S, 10 uM. From the text:
(§1) The NMRI isolate of S. mansoni was maintained by passage through Biomphalaria glabrata snails and 3–5 week-old, female Golden Syrian hamsters (Charles River, San Diego, CA) as intermediate and definite hosts, respectively. A dose of 600 infective larvae (cercariae) was used to infect hamsters. The acquisition, preparation and in vitro maintenance of S. mansoni post-infective larvae (schistosomula or somules) and adults have been already described[5],[50],[51]. Vertebrate animal maintenance and handling at the University of California San Diego Animal Care Facility were in accordance with protocols approved by the university’s Institutional Animal Care and Use Committee (IACUC).
Phenotypic screens with somules were performed as described[5],[50],[51]. Initially, 100 μL Basch medium, 100 U/ml penicillin, […] streptomycin, 4% heat-inactivated FBS (Corning Mediatech) and 1 μl compound in DMSO were added to clear, 96-well round-bottomed plates (Costar cat.# 3367). Then, 100 μL of the same medium containing 40–50 somules was added to mix the compound with somules (final concentration of DMSO was 0.5%). Assay plates were placed into plastic boxes humidified with wet tissue and then incubated at 37 °C in a 5% CO2 environment. Somules phenotypes were recorded every 24 h up to 72 h using an inverted microscope (Zeiss Axiovert 40 C).
(§2) Schistosome phenotypic responses were recorded employing a series of ‘descriptors,’ such as rounding, degeneration, overactivity, loss of translucency and changes in motility, as described previously[5],[50],[51],[53]. To allow for comparisons of compound activity, each descriptor was awarded a value of 1 and these were added up to a maximum ‘severity score’ of 4. Evidence of degeneracy or death was awarded the maximum score of 4. Scores were averaged across duplicate wells for each compound (see details in the supporting information).

The subject of a further series is S. mansoni adults. The experiment in a line: S. mansoni adults phenotypic screen ex vivo. The class given is cell-based, Schistosoma mansoni. The note with it: Table 2S, 5 uM.
Text: as §1
Phenotypic screens with 42-day-old, adult parasites were performed in 24-well plates (Costar cat.# 3526) containing the above medium and approximately five adult males and two females per well. Compound was added in a volume of up to 1 μL DMSO at a concentration of 5 µM (0.05% DMSO final). Assay plates were incubated at 37 °C in a 5% CO2 environment. Parasite phenotypes were recorded at 4, 8 and 24 h using a Zeiss Axiovert 40 C.
as §2

Series [3] has as its system murine macrophages and bovine sperm. Description: Non-specific toxicity against mammalian cells. It is filed as cell-based. The note with it: for toxicity to mammalian cells in words: herein; for Toxicity mammalian cells: selectivity index parasite vs. mammalian cells, fixed doses 25 and 100 µM. As to the method: As a proof of concept, we tested the best FhTIM inactivators against F. hepatica and S. mansoni parasites. Also, we use compound 191 as a non-inhibitor which has a closely related structure to that of compound 187. Some compounds were able to kill 100% of the newly excysted juvenile (NEJ) F. hepatica within 4 to 48 h (Table 2 and Fig. 2). […] In parallel, these compounds were assayed to characterize their non-specific toxicity against murine macrophages and bovine sperm. Both models are recommended by FDA as an in vitro prediction of toxicology.
J774.1 murine macrophage cells (ATCC, USA) were grown in DMEM culture milieu containing 4 mM glutamine and supplemented with 10% FCS[20]. The cells were seeded in a 96-well plate (5×10^4 cells in 200 µL culture medium) and incubated at 37 °C in a 5% CO2 atmosphere for 48 h, to allow cell adhesion prior to drug testing. Afterward, cells were exposed for 48 h to the compounds (25–400 µM) or the vehicle for control (0.4% DMSO), and additional controls (cells in medium) were used in each test. Cell viability was then assessed by measuring the mitochondria-dependent reduction of MTT (3-(4,5-dimethylthiazol-2-yl)-2,5-diphenyltetrazolium bromide) to formazan. For this purpose, MTT in sterile PBS (0.2% glucose), pH 7.4, was added to the macrophages to achieve a final concentration of 0.1 mg/mL, and the cells were incubated at 37 °C for 3 h. After removing the medium, formazan crystals were dissolved in 180 µL of DMSO and 20 µL of MTT buffer (0.1 M glycine, 0.1 M NaCl, 0.5 mM EDTA, pH 10.5), and the absorbance at 560 nm was measured. The IC50 was defined as the drug concentration at which 50% of the cells were viable, relative to the control (no drug added), and was determined by analysis using OriginLab8.5® sigmoidal regression (% of viable cells vs. the logarithm of the compound concentration). Tests were performed in triplicate.
Semen samples were obtained from a healthy fertile Hereford bull and kept frozen in 0.5 mL straws (extended in Andromed, Minitube, Germany[47]) under liquid nitrogen until use. The semen used belonged to a single freezing batch that was obtained during a regular collection schedule with an artificial vagina. Samples from three straws were thawed and a sperm pool was prepared in PBS at a concentration of 40 million spermatozoa per mL, then 50 μL of this sperm suspension was carefully mixed with 50 μL of compounds diluted to 100, 50, 25, 12.5 and 6.25 μM or with 1% DMSO in control experiments. Each condition was assayed by duplicate in 96-well plates and controls were assayed by triplicate. Plates were incubated at 37 °C for 1 h with moderate shaking. The motility analysis was carried out using a CASA (Computer Assisted Semen Analyzer) system Androvision (Minitube, Tiefenbach, Germany) with an Olympus BX 41 microscope (Olympus, Japan) equipped with a warm-stage at 37 °C. Each sample (10 μL) was placed onto a Makler Counting Chamber (depth 10 μm, Sefi-Medical Instruments, Israel) and the following parameters were evaluated: percentage of total motile spermatozoa (motility >5 μm/s) and velocity curved line (VCL, >24 μm/s). At least 400 spermatozoa were analyzed from each sample from at least four microscope fields.

Series [4] deals with murine macrophages and human peripheral blood mononuclear cells. Further details: method as in PMID 22536349. The settings on record: at 100 µM; cited from earlier work.
[5] abbreviates: recombinant FhTIM, 1 h incubation with compound at 37 °C.

Chain of Fasciola hepatica TIM (FhTIM) (S4UI50 entry or part of it): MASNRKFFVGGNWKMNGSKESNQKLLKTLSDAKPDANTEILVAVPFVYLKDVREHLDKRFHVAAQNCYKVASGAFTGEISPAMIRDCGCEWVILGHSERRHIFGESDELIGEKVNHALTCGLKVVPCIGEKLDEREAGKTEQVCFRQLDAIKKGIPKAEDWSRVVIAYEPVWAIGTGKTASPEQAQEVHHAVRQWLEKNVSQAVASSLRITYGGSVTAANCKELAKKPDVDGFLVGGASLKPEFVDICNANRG

As for `C=CCn1c(-c2ccc(Cl)cc2)csc1=NN=CC=Cc1ccc([N+](=O)[O-])s1` [Compound 144], the IC50 worked out at 60 ± 2 µM in series [1] (setting [5]) and 25 ± 5 µM in series [2]. Also, the “S. mansoni somules severity score” value in the series on S. mansoni somules (Table 2, 72 h, score 0 to maximum 4) is given as 4 (72 h). The figures for the “SOMULES SEVERITY SCORE” value with S. mansoni somules (24 h), in the series on S. mansoni somules (48 h) and in the series on S. mansoni somules (3d) were 1, 2 and 4, respectively. In addition, the “ADULTS SEVERITY SCORE” value with S. mansoni adults (4 h), in the series with S. mansoni adults (8 h) and with S. mansoni adults (24 h) was 0 each time. Also, the “toxicity to mammalian cells in words” value in series [3] is listed as “non-toxic”. Moreover, the Toxicity mammalian cells result in series [3] is given as “NT (when the IC50 vs. the parasite was at least 10 times less than the IC50 vs. the mammalian cells, we considered these compounds as non-toxic (NT))”. Further, the toxicity in words result in series [4] is “non-toxic”.

With `C=CCn1c(-c2ccc(Cl)cc2)csc1=NN=CC=Cc1cccs1` [Compound 1134], the IC50 is 50 to 100 µM in series [1] (Table 1S, screening of 340 compounds in FhTIM, table head prints no unit, µM per b8/b9); 45 ± 4 µM in series [1] (setting [5]); 50 ± 6 µM in series [2]. Moreover, the “toxicity to mammalian cells in words” value in series [3] is “non-toxic”. Besides, in series [3], the Toxicity mammalian cells entry is “NT (when the IC50 vs. the parasite was at least 10 times less than the IC50 vs. the mammalian cells, we considered these compounds as non-toxic (NT))”. In addition, the toxicity in words result in series [4] is recorded as “non-toxic”.
